Measured values: PMC6424956, “A MALDI-TOF-based Method for Studying the Transport of BBB Shuttles—Enhancing Sensitivity and Versatility of Cell-Based In Vitro Transport Models” (Scientific Reports, 2019)
Like-named read-outs stand apart in the source and are kept apart here. Numbered stars: 1 amine (or outer) side, 2 acyl side, 3 side chain; on linkers, the order of the positions; unused ones are H or OH. Square brackets hold non-standard residues; d marks the D form. Peptide text beside a SMILES is read from it. X1 = O=C([C@H]1[C@@H](c2ccccc2)CCN1[*:1])[*:2]; X2 = O=C([C@@H]1[C@H](c2ccccc2)CCN1[*:1])[*:2]; dAla(4-thiazolyl) = N[C@H](Cc1cscn1)C(=O)O; Tic(7-OH) = O=C(O)[C@@H]1Cc2ccc(O)cc2CN1; Phe(4-NH2) = Nc1ccc(C[C@H](N)C(=O)O)cc1; Phe(4-F) = N[C@@H](Cc1ccc(F)cc1)C(=O)O; hCha = N[C@@H](CCC1CCCCC1)C(=O)O

Assays:
[1] = test system: in vitro bovine BBB cell-based model; assay: In vitro bovine BBB cell-based model transport assay; details: for Transport (%) MALDI-TOF MS / Transport (%) RP-HPLC-PDA: 200 μM peptide in Ringer-HEPES, 2 h, 37 °C, mean ± SD, n = 3; for Transport (%) MALDI-TOF MS: quantified by MALDI-TOF MS with heavy internal standard; for Transport (%) RP-HPLC-PDA: quantified by RP-HPLC-PDA (220 nm), some values approximate (below LOQ); for Increase in transport compared to the parent peptide (1 L): bovine BBB model, MALDI-TOF MS quantification, transport normalized by parent peptide 1 L
Protocol: (§1) Peptides were evaluated through an in vitro bovine BBB cell-based model (Fig. 2a). Transport (T) and permeability (Papp) for all peptides were quantified by RP-HPLC-PDA and by MALDI-TOF MS (Fig. 2). The former method determined transport by applying the ratio between the peak areas integrated in the chromatograms from the acceptor and donor wells, further corrected by the volumes injected and the volumes contained in each well (see Eq. 1). The latter entails the spiking of the heavy version of the peptide as internal standard into an aliquot of the light peptide (Fig. 2b). The MS intensity for light/heavy ratios for acceptor and donor wells is representative of the relative amount of peptide in each well when corrected by their volume (detailed in Eq. 2).1 T=QAI(t)/QDI(t0)×VDI/VAI×VAW/VDW×100(%) where QAI(t) and QDI(t0) account for the integrated area in the HPLC chromatograms of acceptor (at time t = 2 h) and donor (at time t0 = 0) wells, respectively; VDI and VAI are the injected volumes from donor and acceptor wells, respectively; and VAW and VDW are the volumes in each acceptor and donor well, respectively.2 T=QALight(t)/Q^Heavy/QDLight(t0)/(R×Q^Heavy)×VAW/VDW×100(%) QALight(t)/Q^Heavy accounts for the relative amount of the light peptide in the acceptor well (at time t) compared with a prepared dilution of the heavy isomer (at 2 μM). QDLight(t0)/(R×Q^Heavy) determines the relative amount of light peptide in the donor well (at time t = 0) compared with a prepared dilution of the heavy isomer (at 200 μM; i.e. in our case R = 100).
(§2) In general, transport (see Eq. 3) can be described by the total amount of peptide in the acceptor well at time t, QA(t) , divided by the initial amount in the donor well, QD(t0) , while apparent permeability (Papp), widely used in the literature, normalizes transport by the transwell area, volume in donor well and time (see Eq. 4). […] In these cases, an approximate value was determined.
(§3) This assay was an adapted model[5] of the method previously published by Gaillard and de Boer[49]. Before performing the assay, TEER was measured in all transwells (TEER > 100 Ω·cm^2). […] The apical compartment was filled with 200 μL of the solution containing the peptide, and 800 µL of Ringer-HEPES was poured into the basal well. Three replicates of each peptide were assayed. The plate was left for 2 h in the incubator at 37 °C. Finally, the samples were collected and analyzed or frozen until analysis. LY fluorescence was measured in a 96-well plate with a Fluoroskan Ascent Microplate Fluorometer (Thermo Fisher Scientific). Two parameters were determined, namely transport (T (%)) and apparent permeability (Papp(cm/s)). RP-HPLC-PDA (220 nm) and MALDI-TOF MS were used to determine the amounts of peptide in each sample.
(§4) Transport was calculated using Eq. 2. […] Peak-picking and determination of peak area ratios was performed using Data Explorer version 4.5 (Applied Biosystems).

[2] = as above; details: bovine, 200 μM peptide in Ringer-HEPES, 2 h, 37 °C, mean ± SD, n = 3
Protocol: as §1, §2, §3, §4

[3] = Peptide stability in human serum; type: in vitro ADME; details: for Protease resistance (in human serum): result in words
Protocol: Peptides were dissolved in 1 mL of HBSS buffer/human serum (from human male AB plasma; Sigma-Aldrich) 10:90 (v/v) at a final concentration of 200 µM and incubated at 37 °C for 24 h. Aliquots of 50 µL were extracted at a range of incubation times and treated with 200 µL of cold CH3OH (4 °C) to precipitate serum proteins. After 30 min, samples were centrifuged at 13,000 g and 4 °C for 30 min. Supernatants were analyzed by RP-HPLC-PDA and MALDI-TOF MS, using similar procedures as for the quantification of the in vitro cell-based BBB model.

[4] = Parallel artificial membrane permeability assay (PAMPA); type: in vitro ADME; details: pig, porcine brain polar lipid extract
Protocol: Passive diffusion was ruled out as the mechanism responsible for transport when the peptides (1 L, 6D, 7 − D and 8D) were assayed by PAMPA, an in vitro physico-chemical model where the transport by passive diffusion of compounds is evaluated through a membrane containing the lipid composition of interest (in our case, a porcine brain polar lipid extract (BPLE) to mimic the BBB lipid barrier). […] Note that when these values fall below 2.0 × 10^−6 cm/s compounds are considered to be poorly transported by passive diffusion.
The PAMPA assay was used to exclude passive diffusion capacity across the BBB. The standard parameter that quantifies transport independently of time and concentrations is effective permeability, Pe=−218.3/tLog(1−2CA(t)/CD(t0))×10^−6cm/s; where t is the running time (4 h), CA (t) is the concentration of the compound in the acceptor well at time t, and CD (t0) is the compound concentration in the donor well before running the PAMPA assay (t0 = 0 h). […] The protocol followed was the same as that previously used by Arranz-Gibert et al.[1]. Permeability is considered excellent with values >4.0 × 10^−6) cm/s, uncertain between 2.0 × 10^−6 and 4.0 × 10^−6 cm/s, and poor with values below 2.0 × 10^−6) cm/s[41].

[5] = test system: in vitro human model of the BBB (brain-like endothelial cells from human cord blood-derived hematopoietic stem cells co-cultured with bovine pericytes); assay: In vitro human BBB cell-based model transport assay
Protocol: The aforementioned peptides were assayed as in the other BBB model using either Ringer-HEPES buffer (the one commonly used in these assays) or supplemented ECM medium. The use of medium in this assay allows (1) the extension of the incubation time and (2) the use of more similar conditions to those found physiologically.
Endothelial cells and pericytes were defrosted in gelatin-coated Petri dishes (Corning). Pericytes and endothelial cells were cultured in DMEM pH 6.8 or in supplemented endothelial cell growth medium (Sciencells), respectively. After 48 h, pericytes (50,000 cells/well) and endothelial cells (80,000 cells/well) were seeded in gelatin-coated 12-well plates or in Matrigel-coated 12-well Transwell inserts (Corning), respectively. Medium was changed every 2–3 days and assays were performed 7–8 days after seeding. […] LY fluorescence was measured in a 96-well plate with a Fluoroskan Ascent Microplate Fluorometer (Thermo Fisher Scientific). Compounds were dissolved in Ringer-HEPES at a concentration of 200 µM. Then, 500 µL of the compound and 1,500 µL of Ringer-HEPES alone were introduced in the apical or in the basolateral compartments, respectively. The plates were set on at 37 °C for 2 h. The solutions from both compartments were then recovered and quantified by HPLC and identified by MALDI-TOF.

[6] = Papp MALDI-TOF MS, quantified by MALDI-TOF MS with heavy internal standard
[7] = Papp RP-HPLC-PDA, quantified by RP-HPLC-PDA (220 nm)
[8] = 4 h, n = 3, values are Pe · 10^6, read-out: Pe · 10^6 (effective permeability)
[9] = read-out: Permeability values (PAMPA), bound in the text

| Compound | Transport (%) MALDI-TOF MS [1] | Transport (%) RP-HPLC-PDA [1] | Increase in transport compared to the parent peptide (1 L) [1] | Papp at 2 h, 200 μM [2, 6] | Papp at 2 h, 200 μM [2, 7] | half-life at 200 µM ([3]; male, HBSS buffer/human serum 10:90 (v/v), 200 µM, 37 °C, 24 h, non-linear regression, read-out: t1/2 in human serum (converted)) | Papp at 4 h [4, 8] | Papp at 4 h [4, 9] | Transport relative to the parent peptide 1 L (HAI), buffer ([5]; human BBB model, Ringer-HEPES buffer) | Transport relative to the parent peptide 1 L (HAI), medium ([5]; human BBB model, supplemented ECM medium) | Protease resistance (in human serum) [3] | Papp of Lucifer Yellow (internal control) ([5]; 50 µM Lucifer Yellow as internal control) | Papp of Lucifer yellow (control) ([1]; 20 μM Lucifer yellow lithium salt as control in Ringer-HEPES) |
| --- | --- | --- | --- | --- | --- | --- | --- | --- | --- | --- | --- | --- | --- |
| CC[C@@H](C)[C@@H](NC(=O)[C@@H](Cc1ccc(O)cc1)NC(=O)[C@@H]1[C@H](c2ccccc2)CCN1C(=O)[C@@H](CCCNC(=N)N)NC(=O)[C@@H](Cc1c[nH]cn1)NC(C)=O)C(=O)N[C@H](C)C(=O)N[C@H](Cc1c[nH]cn1)C(N)=O [7+D, Ac-hrxyiah-NH2] (Ac-[dH][dR][X2][dY][dI][dA][dH]-NH2) | 7 ± 2% | 6.8 ± 1.2% | two-fold | 5.7 ± 1.9 ×10⁻⁶ cm/s | 5.7 ± 1 ×10⁻⁶ cm/s | – | – | – | – | – | – | – | – |
| CC[C@H](C)[C@H](NC(=O)[C@H](C)NC(=O)[C@H](Cc1c[nH]cn1)NC(C)=O)C(=O)N[C@@H](Cc1ccc(O)cc1)C(=O)N1CCC[C@H]1C(=O)N[C@@H](CCCNC(=N)N)C(=O)N[C@@H](Cc1c[nH]cn1)C(N)=O [Peptide 1L, Ac-HAIYPRH-NH2] | 3.8 ± 1.4% | 2.9 ± 1.4% | – | 3.2 ± 1.2 ×10⁻⁶ cm/s | 2.5 ± 1.1 ×10⁻⁶ cm/s | 198 min | 0.18 ×10⁻⁶ cm/s | < 0.4 ×10⁻⁶ cm/s | – | – | – | – | – |
| CC(=O)N[C@@H](Cc1c[nH]cn1)C(=O)N[C@@H](C)C(=O)N[C@@H](CCC1CCCCC1)C(=O)N[C@@H](Cc1ccc(O)cc1)C(=O)N1CCC[C@H]1C(=O)N[C@@H](CCCNC(=N)N)C(=O)N[C@@H](Cc1c[nH]cn1)C(N)=O [Peptide 2L, Ac-HAxYPRH-NH2] (Ac-HA[hCha]YPRH-NH2) | 3.4 ± 0.7% | 3.9 ± 0.9% | – | 2.8 ± 0.6 ×10⁻⁶ cm/s | 3.3 ± 0.7 ×10⁻⁶ cm/s | – | – | – | – | – | – | – | – |
| CC[C@H](C)[C@H](NC(=O)[C@H](C)NC(=O)[C@H](Cc1c[nH]cn1)NC(C)=O)C(=O)N1Cc2cc(O)ccc2C[C@H]1C(=O)N1CCC[C@H]1C(=O)N[C@@H](CCCNC(=N)N)C(=O)N[C@@H](Cc1c[nH]cn1)C(N)=O [Peptide 3L, Ac-HAIxPRH-NH2] (Ac-HAI[Tic(7-OH)]PRH-NH2) | 2.5 ± 1.2% | 2.0 ± 0.8% | – | 2.1 ± 1 ×10⁻⁶ cm/s | 1.7 ± 0.6 ×10⁻⁶ cm/s | – | – | – | – | – | – | – | – |
| CC[C@H](C)[C@H](NC(=O)[C@H](C)NC(=O)[C@H](Cc1c[nH]cn1)NC(C)=O)C(=O)N[C@@H](Cc1ccc(N)cc1)C(=O)N1CCC[C@H]1C(=O)N[C@@H](CCCNC(=N)N)C(=O)N[C@@H](Cc1c[nH]cn1)C(N)=O [Peptide 4L, Ac-HAIxPRH-NH2] (Ac-HAI[Phe(4-NH2)]PRH-NH2) | 2.1 ± 0.5% | 2.0 ± 0.9% | – | 1.8 ± 0.4 ×10⁻⁶ cm/s | 1.6 ± 0.8 ×10⁻⁶ cm/s | – | – | – | – | – | – | – | – |
| CC[C@H](C)[C@H](NC(=O)[C@H](C)NC(=O)[C@H](Cc1c[nH]cn1)NC(C)=O)C(=O)N[C@@H](Cc1ccc(F)cc1)C(=O)N1CCC[C@H]1C(=O)N[C@@H](CCCNC(=N)N)C(=O)N[C@@H](Cc1c[nH]cn1)C(N)=O [Peptide 5L, Ac-HAIxPRH-NH2] (Ac-HAI[Phe(4-F)]PRH-NH2) | 3.1 ± 1.6% | 3.4 ± 1.6% | – | 2.6 ± 1.3 ×10⁻⁶ cm/s | 2.9 ± 1.3 ×10⁻⁶ cm/s | – | – | – | – | – | – | – | – |
| CC[C@@H](C)[C@@H](NC(=O)[C@@H](Cc1ccc(O)cc1)NC(=O)[C@H]1CCCN1C(=O)[C@@H](CCCNC(=N)N)NC(=O)[C@@H](Cc1c[nH]cn1)NC(C)=O)C(=O)N[C@H](C)C(=O)N[C@H](Cc1c[nH]cn1)C(N)=O [Peptide 6D, Ac-hrpyiah-NH2] | 3.1 ± 0.9% | 5.3 ± 1.8% | – | 2.6 ± 0.7 ×10⁻⁶ cm/s | 4.5 ± 1.5 ×10⁻⁶ cm/s | – | 0.34 ×10⁻⁶ cm/s | < 0.4 ×10⁻⁶ cm/s | – | – | – | – | – |
| CC[C@@H](C)[C@@H](NC(=O)[C@@H](Cc1ccc(O)cc1)NC(=O)[C@H]1[C@@H](c2ccccc2)CCN1C(=O)[C@@H](CCCNC(=N)N)NC(=O)[C@@H](Cc1c[nH]cn1)NC(C)=O)C(=O)N[C@H](C)C(=O)N[C@H](Cc1c[nH]cn1)C(N)=O [Peptide 7-D, Ac-hrxyiah-NH2] (Ac-[dH][dR][X1][dY][dI][dA][dH]-NH2) | 7 ± 3% | 5.7 ± 1.8% | two-fold | 6 ± 2 ×10⁻⁶ cm/s | 4.8 ± 1.5 ×10⁻⁶ cm/s | – | 0.33 ×10⁻⁶ cm/s | < 0.4 ×10⁻⁶ cm/s | around 1.5 fold | eight- | high resistance to protease degradation | – | – |
| CC[C@@H](C)[C@@H](NC(=O)[C@@H](Cc1ccc(O)cc1)NC(=O)[C@H]1CCCCN1C(=O)[C@@H](CCCNC(=N)N)NC(=O)[C@@H](Cc1c[nH]cn1)NC(C)=O)C(=O)N[C@H](C)C(=O)N[C@H](Cc1c[nH]cn1)C(N)=O [Peptide 8D, Ac-hrxyiah-NH2] | 7.5 ± 1.0% | 7.2 ± 0.9% | two-fold | 6.3 ± 0.8 ×10⁻⁶ cm/s | 6.1 ± 0.8 ×10⁻⁶ cm/s | – | 0.34 ×10⁻⁶ cm/s | < 0.4 ×10⁻⁶ cm/s | – | – | high resistance to protease degradation | – | – |
| CC[C@@H](C)[C@@H](NC(=O)[C@@H](Cc1ccc(O)cc1)NC(=O)[C@H]1CCCN1C(=O)[C@@H](CCCNC(=N)N)NC(=O)[C@@H](Cc1cscn1)NC(C)=O)C(=O)N[C@H](C)C(=O)N[C@H](Cc1c[nH]cn1)C(N)=O [Peptide 9D, Ac-xrpyiah-NH2] (Ac-[dAla(4-thiazolyl)][dR][dP][dY][dI][dA][dH]-NH2) | 2.9 ± 1.2% | 4.4 ± 0.5% | – | 2.4 ± 1 ×10⁻⁶ cm/s | 3.7 ± 0.4 ×10⁻⁶ cm/s | – | – | – | – | – | – | – | – |
| Lucifer yellow (LY) lithium salt [reference compound] | – | – | – | – | – | – | – | – | – | – | – | < 15 ·10^−6 cm/s | < 17 ·10^−6 cm/s |
